Calls of active or inactive are those of the source. No cut-off for these calls is given here.
What was measured:
[1] = molecular target: T1, Tyrosine-protein kinase receptor UFO (Homo sapiens, UniProt P30530); test: Inhibition of human AXL measured after 150 mins by ATP-competitive HTRF based biochemical assay
T1 sequence (P30530 whole entry): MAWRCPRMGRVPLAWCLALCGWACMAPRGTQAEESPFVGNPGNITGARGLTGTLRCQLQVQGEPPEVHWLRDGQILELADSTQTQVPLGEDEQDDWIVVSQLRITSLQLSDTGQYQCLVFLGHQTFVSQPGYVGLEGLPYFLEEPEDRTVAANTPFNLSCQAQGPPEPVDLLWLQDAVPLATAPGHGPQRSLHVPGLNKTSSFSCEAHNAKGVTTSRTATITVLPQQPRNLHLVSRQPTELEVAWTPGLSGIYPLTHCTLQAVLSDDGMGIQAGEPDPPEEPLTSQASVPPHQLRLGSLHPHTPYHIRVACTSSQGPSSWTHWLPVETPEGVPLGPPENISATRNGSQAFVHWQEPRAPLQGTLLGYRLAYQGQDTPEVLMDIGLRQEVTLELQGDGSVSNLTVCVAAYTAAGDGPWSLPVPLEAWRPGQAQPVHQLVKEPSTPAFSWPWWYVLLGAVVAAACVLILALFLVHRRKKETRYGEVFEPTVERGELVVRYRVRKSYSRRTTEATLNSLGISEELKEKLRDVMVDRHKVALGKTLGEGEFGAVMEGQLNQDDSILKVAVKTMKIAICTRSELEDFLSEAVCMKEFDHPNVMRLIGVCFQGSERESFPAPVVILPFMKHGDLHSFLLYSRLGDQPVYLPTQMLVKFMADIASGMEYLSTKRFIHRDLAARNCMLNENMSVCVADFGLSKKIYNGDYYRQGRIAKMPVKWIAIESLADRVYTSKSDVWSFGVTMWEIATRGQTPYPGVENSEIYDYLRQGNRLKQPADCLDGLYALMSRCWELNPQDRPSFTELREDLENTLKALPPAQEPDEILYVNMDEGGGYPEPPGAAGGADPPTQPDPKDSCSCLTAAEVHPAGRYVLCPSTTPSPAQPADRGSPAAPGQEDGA

[2] = AUCinf in Sprague-Dawley rat at 2 mg/kg, po measured up to 8 hrs by LC-MS/MS analysis; format: ADME, organism-based; details: in vivo
[3] = Efflux ratio in human Caco-2 cells; format: ADME, cell-based
[4] = Clearance in Sprague-Dawley rat at 0.5 mg/kg, iv measured up to 24 hrs by LC-MS/MS analysis; format: ADME, organism-based; details: in vivo
CYP2B6 = molecular target: T2, CYP2B6 (Homo sapiens, UniProt P20813); test: Time dependent inhibition of CYP2B6 (unknown origin) at 30 uM measured after 30 mins relative to control; format: ADME; details: read-out: TDI
T2 sequence (P20813 whole entry): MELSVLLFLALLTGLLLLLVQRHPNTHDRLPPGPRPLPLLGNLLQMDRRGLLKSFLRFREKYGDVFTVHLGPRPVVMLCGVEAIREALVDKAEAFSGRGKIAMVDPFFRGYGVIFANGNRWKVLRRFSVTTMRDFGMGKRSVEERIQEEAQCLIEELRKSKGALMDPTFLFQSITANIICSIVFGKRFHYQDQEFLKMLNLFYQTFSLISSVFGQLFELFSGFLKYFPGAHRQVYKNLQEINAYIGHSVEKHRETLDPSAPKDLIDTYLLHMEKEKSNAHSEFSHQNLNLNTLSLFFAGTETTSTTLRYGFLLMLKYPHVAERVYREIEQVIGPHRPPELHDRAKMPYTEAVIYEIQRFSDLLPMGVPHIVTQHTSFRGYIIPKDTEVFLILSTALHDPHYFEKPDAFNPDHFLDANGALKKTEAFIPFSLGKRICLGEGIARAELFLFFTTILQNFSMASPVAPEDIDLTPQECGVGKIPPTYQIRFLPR

CYP2D6 = CYP2D6 (Homo sapiens, UniProt P10635); test: Time dependent inhibition of CYP2D6 (unknown origin) at 30 uM measured after 30 mins relative to control; format: ADME; details: read-out: TDI
Sequence of CYP2D6 (P10635 whole entry): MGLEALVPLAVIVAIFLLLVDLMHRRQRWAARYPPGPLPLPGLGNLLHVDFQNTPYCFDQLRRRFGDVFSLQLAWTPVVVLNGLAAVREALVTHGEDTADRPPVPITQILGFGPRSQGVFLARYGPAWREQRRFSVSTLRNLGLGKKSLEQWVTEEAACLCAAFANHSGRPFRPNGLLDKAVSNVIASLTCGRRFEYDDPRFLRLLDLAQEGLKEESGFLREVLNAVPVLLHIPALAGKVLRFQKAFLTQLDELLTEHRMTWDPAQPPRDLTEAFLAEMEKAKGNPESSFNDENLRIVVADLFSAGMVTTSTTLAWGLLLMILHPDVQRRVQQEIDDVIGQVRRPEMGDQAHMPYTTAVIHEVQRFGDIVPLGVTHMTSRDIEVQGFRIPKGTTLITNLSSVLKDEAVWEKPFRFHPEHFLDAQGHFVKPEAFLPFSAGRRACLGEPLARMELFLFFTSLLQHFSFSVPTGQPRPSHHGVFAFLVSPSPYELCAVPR

Cytochrome P450 1A2 = molecular target: T3, Cytochrome P450 1A2 (Homo sapiens, UniProt P05177); test: Inhibition of CYP1A2 (unknown origin) measured after 30 mins; format: ADME
T3 sequence (P05177 whole entry): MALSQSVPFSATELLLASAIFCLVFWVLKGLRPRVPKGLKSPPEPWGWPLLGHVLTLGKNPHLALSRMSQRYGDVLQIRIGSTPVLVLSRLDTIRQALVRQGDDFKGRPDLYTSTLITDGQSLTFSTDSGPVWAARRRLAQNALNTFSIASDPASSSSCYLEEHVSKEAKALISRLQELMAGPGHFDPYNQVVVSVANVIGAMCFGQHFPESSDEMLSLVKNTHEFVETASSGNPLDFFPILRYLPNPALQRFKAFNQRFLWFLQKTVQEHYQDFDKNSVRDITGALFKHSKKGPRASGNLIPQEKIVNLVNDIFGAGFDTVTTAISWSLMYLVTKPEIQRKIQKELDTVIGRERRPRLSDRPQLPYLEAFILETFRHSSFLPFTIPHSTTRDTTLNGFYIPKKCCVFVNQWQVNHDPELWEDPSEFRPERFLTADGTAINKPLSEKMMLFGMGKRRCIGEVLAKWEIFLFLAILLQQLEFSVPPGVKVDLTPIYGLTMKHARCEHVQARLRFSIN

Cytochrome P450 2B6 = molecular target: T4, Cytochrome P450 2B6 (Homo sapiens, UniProt P20813); test: Inhibition of CYP2B6 (unknown origin) measured after 30 mins; format: ADME
T4 sequence (P20813 whole entry): T2 sequence (P20813 whole entry)

Cytochrome P450 2C9 = Cytochrome P450 2C9 (Homo sapiens, UniProt P11712); test: Inhibition of CYP2C9 (unknown origin) measured after 30 mins; format: ADME
Sequence of Cytochrome P450 2C9 (P11712 whole entry): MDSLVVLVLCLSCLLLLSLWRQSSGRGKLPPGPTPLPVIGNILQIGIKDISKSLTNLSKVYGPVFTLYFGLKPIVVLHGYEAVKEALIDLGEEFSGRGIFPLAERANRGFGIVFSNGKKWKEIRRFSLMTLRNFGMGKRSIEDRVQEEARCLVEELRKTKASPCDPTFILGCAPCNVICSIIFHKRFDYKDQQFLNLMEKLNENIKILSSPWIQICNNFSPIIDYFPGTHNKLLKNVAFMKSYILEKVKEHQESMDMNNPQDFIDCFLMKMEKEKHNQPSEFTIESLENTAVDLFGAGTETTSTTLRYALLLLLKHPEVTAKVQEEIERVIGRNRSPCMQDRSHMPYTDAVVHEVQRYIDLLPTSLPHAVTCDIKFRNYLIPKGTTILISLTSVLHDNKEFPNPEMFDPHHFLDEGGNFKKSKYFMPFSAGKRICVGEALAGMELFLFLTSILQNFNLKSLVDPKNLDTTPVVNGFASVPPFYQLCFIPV

[5] = Selectivity ratio, ratio of Ki for TYRO3 (unknown origin) to Ki for AXL (unknown origin)
[6] = Selectivity ratio, ratio of Ki for TRKA (unknown origin) to Ki for AXL (unknown origin)
786-0 [7] = test: Anti-tumor activity against human 786-0 cells xenografted in mouse model assessed as tumor growth inhibition at 10 mg/kg, po once daily for 15 days; format: functional, organism-based; details: time 15.0 day
786-0 [8] = test: Anti-tumor activity against human 786-0 cells xenografted in mouse model assessed as tumor growth inhibition at 30 mg/kg, po once daily for 15 days; format: functional, organism-based; details: time 15.0 day
786-0 [9] = test: Anti-tumor activity against human 786-0 cells xenografted in mouse model assessed as reduction in tumor volume in presence of sunitinib at 10 mg/kg, po once daily for 15 days; format: functional, organism-based; details: time 15.0 day
[10] = Toxicity in mouse xenografted with human 786-0 cells assessed as body weight in presence of sunitinib at 10 mg/kg, po once daily for 15 days; format: organism-based; details: in vivo, 360 h, time 15 day
[11] = Tmax in human (healthy individuals) at 10 mg, single oral dose; format: ADME; details: in vivo
[12] = Tmax in human (healthy individuals) at 270 mg, single oral dose; format: ADME; details: in vivo
[13] = AUC (0 to 24 hrs) in human (healthy individuals) at 10 mg, single oral dose; format: ADME; details: in vivo
[14] = AUC (0 to 24 hrs) in human (healthy individuals) at 270 mg, single oral dose; format: ADME; details: in vivo
[15] = AUC (0 to 120 hrs) in human (healthy individuals) at 30 mg, single oral dose; format: ADME; details: in vivo

## Cc1cccnc1-c1ccc(-c2n[nH]c3ncc(-c4ccc5c(c4)CC[C@@H](N4C6COCC4C6)CC5)cc23)nc1
[1]
  IC50: 1.8 nM
[2]
  AUC(0-inf): 1800 ng·h/mL
[3]
  efflux ratio: 1.9
[4]
  clearance: 10.8 mL/min/kg
CYP2B6
  inhibition at 0.5 h, 30 µM: 12%
CYP2D6
  inhibition at 0.5 h, 30 µM: 0%
Cytochrome P450 1A2
  IC50: > 100 µM
Cytochrome P450 2B6
  IC50: > 100 µM
Cytochrome P450 2C9
  IC50: 91 µM
[5]
  Ratio Ki: 1400
[6]
  Ratio Ki: 330
786-0 [7]
  Activity: inactive
786-0 [8]
  Activity: inactive
786-0 [9]
  Activity: Active
[10]
  Activity: Non-toxic
[11]
  Tmax: 6 h
[12]
  Tmax: 8 h
[13]
  AUC(0-t): 55 ng·h/mL
[14]
  AUC(0-t): 2580 ng·h/mL
[15]
  AUC(0-t): 614 ng·h/mL

— ChEMBL document CHEMBL6134930, “Discovery of AB801, a Potent and Selective Inhibitor of AXL Receptor Tyrosine Kinase for Use in Cancer Therapy” (J Med Chem, 2025)
